Test results as given in patent US20160052936A1, “SPIROINDOLINE DERIVATIVES FOR USE AS GONADOTROPIN-RELEASING HORMONE RECEPTOR ANTAGONISTS” (BAYER PHARMA AKTIENGESELLSCHAFT, priority 2013, published 2016).
Non-standard residues stand in square brackets, D forms with d. Residues, ends and D or L forms follow the SMILES beside them. dPhe(4-Cl) = N[C@H](Cc1ccc(Cl)cc1)C(=O)O; d2Nal = N[C@H](Cc1ccc2ccccc2c1)C(=O)O; dCit = NC(=O)NCCC[C@@H](N)C(=O)O; d3Pal = N[C@H](Cc1cccnc1)C(=O)O

Key:
[1] = tested on: LH level in ovariectomized rats; test: LH suppression in the ovariectomized rat; format: in vivo; settings: 0.1 mg/kg i.p., 8 hours
Description: 2.5. LH Suppression in the Ovariectomized Rat
The in vivo potency of GnRH antagonists can be quantified by a LH suppression test in ovariectomized rats. GnRH triggers the LH release from the pituitary mediated by GnRH receptors. Ovarectomy of adult female rats results in elevated levels of circulating LH due to a lack of negative feedback by gonadal steroids. GnRH antagonists suppress the release of LH and accordingly suppression of LH levels can be used to quantify the in vivo potency of GnRH antagonists.
Female adult rats were ovariectomized surgically and they were allowed to recover for at least one week. The animals received 0.5 mg/kg, 3 mg/kg or 10 mg/kg of Example 3.1 by single per oral administration. For comparison reasons a vehicle control and a positive control, 0.1 mg/kg cetrorelix (i.p.), were given once. At 0 min, 15 min, 30 min, 1 hour, 2 hours, 4 hours, 8 hours and 24 hours after compound administration blood was taken from the retro orbital plexus (n=6 per blood withdrawal) for the measurement of serum LH and serum compound levels.
As nonbinding explanatory example of compounds according to the invention FIG. 1 represents the LH level following administration of the compound according to Example 3.1, to ovariectomized adult rats. [Filled circle: Vehicle; Circle, dotted black line: Cetrorelix (0.1 mg/kg); Triangle: Example 3.1 (0.5 mg/kg); Reverse triangle: Example 3.1 (3 mg/kg); Diamond: Example 3.1 (10 mg/kg)]. Values are given as mean+standard deviation (n=6).

human GnRH receptor = target: T1, human GnRH receptor (Homo sapiens, UniProt P30968); test: IP-One HTRF assay with buserelin stimulation; format: cell-based; settings: CHO cells stably expressing human GnRH receptor; buserelin at EC80; read-out: Potency in IP-One HTRF assay with buserelin (at EC80) stimulation, given as IC50
T1 construct: host or cells: CHO cells stably expressing human GnRH receptor (line established by Prof. Thomas Gudermann)
T1 sequence (P30968 1-328): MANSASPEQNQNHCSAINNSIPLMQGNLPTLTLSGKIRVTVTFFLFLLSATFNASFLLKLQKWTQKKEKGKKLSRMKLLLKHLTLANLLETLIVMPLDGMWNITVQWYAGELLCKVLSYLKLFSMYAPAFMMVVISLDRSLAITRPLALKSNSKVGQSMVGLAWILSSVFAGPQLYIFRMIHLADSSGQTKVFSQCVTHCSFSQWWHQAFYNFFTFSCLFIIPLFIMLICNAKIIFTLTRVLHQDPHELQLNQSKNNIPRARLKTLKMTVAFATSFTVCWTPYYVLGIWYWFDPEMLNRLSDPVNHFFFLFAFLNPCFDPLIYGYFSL
Description: By using homogenous time-resolved fluorescence resonance energy transfer (HTRF), the generation of one component of the GnRH-R signalling cascade can be measured. After stimulation of CHO cells stably expressing human GnRH receptor (established by Prof. Thomas Gudermann, currently University of Marburg, Germany; supplied as frozen cell aliquots by Cell Culture Services, Hamburg, Germany) with the EC80 of the GnRH agonist buserelin, Gq protein-coupled receptor signalling cascade is activated resulting in PLC-dependent cleavage of PIP2 to Inositol-1,4,5-triphosphate (IP3) and Diacylglycerol. The second messenger IP3 is degraded intracellularly to myo-inositol. Inhibition of the final degradation step from Inositol-1-phosphate (IP1) to myo-inositol by addition of lithium chloride leads to accumulation of IP1 in the cells. In cell lysates, IP1 can be detected via an antibody-based HTRF detection technology, where IP1 can displace the FRET acceptor IP1-d2 from binding by Terbium-labelled anti-IP1 antibody as donor resulting in a signal decrease. Compounds were tested for their capability of inhibiting GnRH-R activation by buserelin. For all IP-One HTRF® assays reagents of Cisbio Bioassays (IP-One Tb Jumbo kit, #62IPAPEJ; Cisbio Bioassays, Bagnols sur Cèze Cedex, France) were used.
For the assay, frozen cell aliquots were thawed and a cell suspension (3.33×10^6 cells/mL) containing IP1-d2 (dilution 1:40) was prepared and incubated at 37° C. After 1 h 3 μl of the cell suspension were added to 50 nl of a 100-fold concentrated solution of the test compound in DMSO pre-dispensed in a well of a white low-volume 384-well microtiter plate (Greiner Bio-One, Frickenhausen, Germany). […] Plates were incubated for 1 h at 37° C. and 5% carbon dioxide before the cells were lysed by adding 3 μl Terbium-labelled anti-IP1 antibody (1:40) diluted in Conjugate & Lysis buffer as supplied with the kit. After an incubation for 1 h at 22° C. to enable complete cell lysis and antibody binding to free IP1 or IP1-d2, plates were measured in an HTRF reader, e.g. a RUBYstar, PHERAstar (both BMG Labtechnologies, Offenburg, Germany) or a Viewlux (PerkinElmer LAS, Rodgau-Jügesheim, Germany).
From the fluorescence emissions at 665 nm (FRET) and at 620 nm (background signal of Terbium-antibody), the ratio (emission at 665 nm divided by emission at 620 nm) was calculated and the data were normalized (reaction without test compound=0% inhibition; all other assay components except agonist=100% inhibition). On the same microtiter plate, compounds were tested at 10 different concentrations in the range of 20 μM to 1 nM (20 μM, 6.7 μM, 2.2 μM, 0.74 μM, 0.25 μM, 82 nM, 27 nM, 9.2 nM, 3.1 nM and 1 nM; dilution series prepared before the assay at the level of the 100-fold conc. stock solutions by serial 1:3 dilutions in 100% DMSO) in duplicate values for each concentration. By using an in-house software, the IC50 values were calculated by a 4 parameter fit.
Within the meaning of the present invention the antagonist activity is reflected by the ability of a compound of the invention to antagonize human GnRH receptor stimulation in IP-One HTRF® assay at least three times the standard deviation over the background level.

human GnRHR = target: T2, human GnRHR (Homo sapiens, UniProt P30968); test: Tag-Lite receptor binding assay; settings: Hek293 cells transiently transfected with human GnRHR; displacement of green-labelled GnRHR binding peptide; read-out: Potency in receptor binding assay using TAG-LITE technology, given as IC50
T2 construct: own knowledge: Tag-lite cells usually carry an N-terminal SNAP-tag fusion; host or cells: Hek293 cells, transiently transfected, supplied frozen
T2 sequence (P30968 1-328): T1 sequence (P30968 1-328)
Description: 2.2. Tag-Lite® Receptor Binding Assay
This binding assay is based on the fluorescence resonance energy transfer between fluorescence donor labelled human GnRHR and a green-labelled GnRHR binding peptide. Compounds interfering with the ligand binding side of the human GnRHR will replace the labelled peptide resulting in a signal decrease. The assay principle was established by Cisbio Bioassays (Bagnols-sur-Cèze Cedex, France) and further details are available on their homepage.
The assay procedure was further optimized for use in-house with reduced assay volumes. Frozen Hek293 cells, transiently transfected with human GnRHR and Terbium-labelling of the receptor, were supplied by Cisbio Bioassays as well as Tag-Lite buffer and green-labelled GnRHR binding peptide. Cells were thawed and transferred to cold Tag-Lite buffer. A volume of 8 μl of this cell suspension were added to 100 nl of a 160-fold concentrated solution of the test compound in DMSO pre-dispensed in a well of a white low-volume 384-well microtiter plate (Greiner Bio-One, Frickenhausen, Germany). The mixture was incubated for 5 min at room temperature. In the next step either 4 μl Tag-Lite buffer or as control 4 μl of an exceeding amount unlabelled binding peptide in Tag-Lite buffer were transferred to the mixture. The green-labelled GnRHR binding peptide was added in a final step at EC50 in a volume of 4 μl Tag-Lite buffer. After an incubation of 1 h at room temperature plates were measured in a microplate reader, e.g. a PHERAstar (BMG Labtechnologies, Offenburg, Germany) by using a specific optic module.
A ratio from the fluorescence emissions at 520 nm (green fluorescence) and at 490 nm (background signal of Terbium-labelled GnRHR) was calculated and the data were normalized (reaction without test compound=0% inhibition of binding of green-labelled peptide; reaction without test compound with exceeding amount unlabelled binding peptide=100% inhibition of binding of green-labelled peptide). On the same microtiter plate, compounds were tested at 10 different concentrations in the range of 12.5 μM to 0.64 nM (12.5 μM, 4.2 μM, 1.4 μM, 0.46 μM, 0.15 μM, 51 nM, 17 nM, 5.7 nM, 1.9 nM and 0.64 nM; dilution series prepared before the assay at the level of the 160-fold conc. stock solutions by serial 1:3 dilutions in 100% DMSO) in duplicate values for each concentration. By using an in-house software, the IC50 values were calculated by a 4 parameter fit.

SMILES: CC(=O)N[C@H](Cc1ccc2ccccc2c1)C(=O)N[C@H](Cc1ccc(Cl)cc1)C(=O)N[C@H](Cc1cccnc1)C(=O)N[C@@H](CO)C(=O)N[C@@H](Cc1ccc(O)cc1)C(=O)N[C@H](CCCNC(N)=O)C(=O)N[C@@H](CC(C)C)C(=O)N[C@@H](CCCNC(=N)N)C(=O)N1CCC[C@H]1C(=O)N[C@H](C)C(N)=O [cetrorelix, reference compound] (Ac-[d2Nal][dPhe(4-Cl)][d3Pal]SY[dCit]LRP[dA]-NH2)
- LH suppression [1]: ca. 90%

SMILES: O=C(NCc1ncc(C(F)(F)F)cc1Cl)c1ccc2c(c1)C1(CCS(=O)(=O)CC1)[C@@H](C1CC1)N2S(=O)(=O)c1ccc(F)cc1 [Example 3.2, (2R)—N-{[3-chloro-5-(trifluoromethyl)pyridin-2-yl]methyl}-2-cyclopropyl-1-[(4-fluorophenyl)sulfonyl]-1,2,2′,3′,5′,6′-hexahydrospiro[indole-3,4′-thiopyran]-5-carboxamide 1′,1′-dioxide]
- IC50 (human GnRH receptor): 2.43 µM
- IC50 (human GnRHR): 0.748 µM
